pIC50: −log10 of the molar value. In brackets after ≈: the same amount, converted by molar mass.
How the values were obtained:
Alpha-glucosidase = Alpha-glucosidase (Saccharomyces cerevisiae S288c, UniProt P53341+P38158+P07265); assay: Inhibition of Saccharomyces cerevisiae alpha-glucosidase assessed as decrease in release of p-nitrophenol using pNPG as substrate incubated for 10 mins by spectroscopic analysis; assay type: protein assay
[1] = Antiproliferative activity against human […] cells assessed as reduction in cell proliferation; assay type: functional, cell-based
HepG2 [2] = assay: Antiproliferative activity against human HepG2 cells assessed as reduction in cell proliferation; assay type: functional, cell-based
MCF7 [3] = assay: Antiproliferative activity against human MCF7 cells assessed as reduction in cell proliferation; assay type: functional, cell-based
MCF7 [4] = assay: Anticancer activity against human MCF7 cells assessed as reduction in cell viability incubated for 24 hrs by MTT colorimetric assay; assay type: functional, cell-based; conditions: MCF7, 24 h
HCT-116 = assay: Anticancer activity against human HCT-116 cells assessed as reduction in cell viability incubated for 24 hrs by MTT colorimetric assay; assay type: functional, cell-based; conditions: HCT-116, 24 h
HepG2 [5] = assay: Anticancer activity against human HepG2 cells assessed as reduction in cell viability incubated for 24 hrs by MTT colorimetric assay; assay type: functional, cell-based; conditions: HepG2, 24 h
Klebsiella pneumoniae [6] = assay: Antibacterial activity against Klebsiella pneumoniae assessed as diameter of inhibition zone at 100 ug/ml by disc diffusion method; assay type: functional; conditions: read-out: DIZ
Escherichia coli [7] = assay: Antibacterial activity against Escherichia coli assessed as diameter of inhibition zone at 100 ug/ml by disc diffusion method; assay type: functional; conditions: read-out: DIZ
Staphylococcus aureus [8] = assay: Antibacterial activity against Staphylococcus aureus assessed as diameter of inhibition zone at 100 ug/ml by disc diffusion method; assay type: functional; conditions: read-out: DIZ
Bacillus subtilis = assay: Antibacterial activity against Bacillus subtilis assessed as diameter of inhibition zone at 100 ug/ml by disc diffusion method; assay type: functional; conditions: read-out: DIZ
[9] = tested on: Mycobacterium tuberculosis; assay: Antitubercular activity against Mycobacterium tuberculosis H37Rv assessed as bacterial growth inhibition incubated for 24 hrs by MABA assay; assay type: functional
Klebsiella pneumoniae [10] = assay: Antibacterial activity against Klebsiella pneumoniae assessed as bacterial growth inhibition by broth microdilution method; assay type: functional
Escherichia coli [11] = assay: Antibacterial activity against Escherichia coli assessed as bacterial growth inhibition by broth microdilution method; assay type: functional
Staphylococcus aureus [12] = assay: Antibacterial activity against Staphylococcus aureus assessed as bacterial growth inhibition by broth microdilution method; assay type: functional
Pseudomonas aeruginosa = assay: Antibacterial activity against Pseudomonas aeruginosa assessed as bacterial growth inhibition by broth microdilution method; assay type: functional
Staphylococcus aureus [13] = assay: Antibacterial activity against Staphylococcus aureus assessed as inhibition of bacterial growth; assay type: functional
Salmonella typhimurium = assay: Antibacterial activity against Salmonella typhimurium MTCC 98 assessed as bacterial growth inhibition by broth microdilution method; assay type: functional, Salmonella enterica subsp. enterica serovar Typhimurium; conditions: Salmonella enterica
[14] = Antioxidant activity assessed as DPPH radical scavenging activity; assay type: functional
[15] = Antioxidant activity assessed as H2O2 radical scavenging activity; assay type: functional
[16] = Antioxidant activity assessed as NO radical scavenging activity; assay type: functional
HepG2 [17] = assay: Anticancer activity against human HepG2 cells assessed as reduction in cell viability incubated for 48 hrs by MTT assay; assay type: functional, cell-based; conditions: HepG2, 48 h
Proteus mirabilis = assay: Antibacterial activity against Proteus mirabilis NTCC-289 assessed as diameter of inhibition zone incubated for 24 hrs by disc diffusion method; assay type: functional
Serratia marcescens [18] = assay: Antibacterial activity against Serratia marcescens IMRU-70 assessed as diameter of inhibition zone incubated for 24 hrs by disc diffusion method; assay type: functional
Aspergillus ochraceus [19] = assay: Antifungal activity against Aspergillus ochraceus AUCC-230 assessed as diameter of inhibition zone incubated for 24 hrs by disc diffusion method; assay type: functional
Staphylococcus aureus [20] = assay: Antibacterial activity against Staphylococcus aureus NCTC-7447 assessed as diameter of inhibition zone incubated for 24 hrs by disc diffusion method; assay type: functional
Bacillus cereus = assay: Antibacterial activity against Bacillus cereus ATCC-14579 assessed as diameter of inhibition zone incubated for 24 hrs by disc diffusion method; assay type: functional
Penicillium chrysogenum [21] = assay: Antifungal activity against Penicillium chrysogenum AUCC-530 assessed as diameter of inhibition zone incubated for 24 hrs by disc diffusion method; assay type: functional
Escherichia coli [22] = assay: Antibacterial activity against Escherichia coli ATCC 25922 assessed as diameter of inhibition zone at 50 mg/ml incubated for 24 hrs by paper disk diffusion method; assay type: functional; conditions: read-out: DIZ
Serratia marcescens [23] = assay: Antibacterial activity against Serratia marcescens assessed as diameter of inhibition zone by disc diffusion method; assay type: functional
Aspergillus ochraceus [24] = assay: Antifungal activity against Aspergillus ochraceus assessed as diameter of inhibition zone by disc diffusion method; assay type: functional
Penicillium chrysogenum [25] = assay: Antifungal activity against Penicillium chrysogenum assessed as diameter of inhibition zone by disc diffusion method; assay type: functional
Klebsiella pneumoniae [26] = assay: Antibacterial activity against Klebsiella pneumoniae MGH 78578 assessed as diameter of inhibition zone at 50 mg/ml incubated for 24 hrs by paper disk diffusion method; assay type: functional; conditions: read-out: DIZ
Aspergillus fumigatus = assay: microbe, parasite or virus in culture; assay type: functional; conditions: ATCC204305, dose 50 mg/ml, time 24 hrs, read-out: DIZ

COc1cc(/C=C/C(=O)C2=C(/C=C/c3ccc(O)c(OC)c3)Oc3[nH]c(=O)[nH]c(=O)c3C2c2cccc([N+](=O)[O-])c2)ccc1O (configuration not stated)
IC50 (Alpha-glucosidase): 9.7 µM

c1ccc(-c2nn(-c3ccccc3)cc2C2c3c(ccc4ccccc34)Oc3ncn4ncnc4c32)cc1 (configuration not stated)
pIC50 [1]: 5.31 | pIC50 (HepG2 [2]): 5.04 | pIC50 (MCF7 [3]): 5.00

N#CC(C#N)=C1c2c(-c3ccccc3)n[nH]c2Oc2c1c(-c1ccccc1O)[nH]c1nc(=O)[nH]c(=O)c2-1
pIC50 (MCF7 [4]): 4.65 | pIC50 (HCT-116): 4.73 | pIC50 (HepG2 [5]): 4.66

CCOC(=O)C1=C(C)Oc2nc(C)n(Cc3cn(-c4ccc([N+](=O)[O-])cc4)nn3)c(=O)c2C1c1ccc([N+](=O)[O-])cc1 (configuration not stated)
zone of inhibition at 100 µg/mL (Klebsiella pneumoniae [6]): 14 mm | zone of inhibition at 100 µg/mL (Escherichia coli [7]): 14.5 mm | zone of inhibition at 100 µg/mL (Staphylococcus aureus [8]): 14 mm | zone of inhibition at 100 µg/mL (Bacillus subtilis): 12.5 mm

O=C(O)c1cn(C2CC2)c2cc(N3CCNCC3)c(F)cc2c1=O [CIPROFLOXACIN]
MIC [9]: 3.12 µg/mL (≈ 9.43 µM) | MIC (Klebsiella pneumoniae [10]): 3.12 µg/mL (≈ 9.42 µM) | MIC (Escherichia coli [11]): 3.12 µg/mL (≈ 9.42 µM) | MIC (Staphylococcus aureus [12]): 3.12 µg/mL (≈ 9.42 µM) | MIC (Pseudomonas aeruginosa): 3.12 µg/mL (≈ 9.42 µM) | MIC (Staphylococcus aureus [13]): 50 µg/mL (≈ 151 µM) | MIC (Salmonella typhimurium): 25 µg/mL (≈ 75.4 µM)

Cc1cc(C(C)(C)C)c(O)c(C(C)(C)C)c1 [BUTYLATED HYDROXYTOLUENE]
IC50 [14]: 37.52 µg/mL (≈ 170 µM) | IC50 [15]: 65.33 µg/mL (≈ 296 µM) | IC50 [16]: 56.9 µg/mL (≈ 258 µM)

Cc1ccc(S(=O)(=O)Nn2cnc3c(c2=N)C(c2cn(-c4ccccc4)nc2-c2ccccc2)c2c(ccc4ccccc24)O3)cc1 (configuration not stated)
pIC50 [1]: 5.31 | pIC50 (HepG2 [2]): 5.00 | pIC50 (MCF7 [3]): 5.03

COc1ccc(C2CC(=O)Oc3[nH]c(=O)[nH]c(=O)c32)cc1O (configuration not stated)
pIC50 (HepG2 [17]): 5.06

COc1cc(/C=C/C(=O)C2=C(/C=C/c3ccc(O)c(OC)c3)Oc3[nH]c(=O)[nH]c(=O)c3C2c2c[nH]c3ccccc23)ccc1O (configuration not stated)
IC50 (Alpha-glucosidase): 35.3 µM

N#CC(C#N)=C1c2c(-c3ccccc3)n[nH]c2Oc2[nH]c(=O)nc(-c3ccccc3O)c21
pIC50 (MCF7 [4]): 4.52 | pIC50 (HCT-116): 4.52 | pIC50 (HepG2 [5]): 4.52

N=c1c2c(ncn1-c1ccccc1O)Oc1ccc3ccccc3c1C2c1cn(-c2ccccc2)nc1-c1ccccc1 (configuration not stated)
pIC50 [1]: 5.31 | pIC50 (HepG2 [2]): 5.47 | pIC50 (MCF7 [3]): 5.57

CCOC(=O)n1c(=O)nc2c3c(ncn21)Oc1c(c(=O)oc2ccccc12)C3c1ccc(Cl)cc1 (configuration not stated)
diameter of the inhibition zone (DIZ) (Proteus mirabilis): 21 mm | diameter of the inhibition zone (DIZ) (Serratia marcescens [18]): 21 mm | diameter of the inhibition zone (DIZ) (Aspergillus ochraceus [19]): 15 mm | diameter of the inhibition zone (DIZ) (Staphylococcus aureus [20]): 18 mm | diameter of the inhibition zone (DIZ) (Bacillus cereus): 19 mm | diameter of the inhibition zone (DIZ) (Penicillium chrysogenum [21]): 13 mm

O=c1oc2ccccc2c2c1C(c1ccc(Cl)cc1)c1c(ncn3nc(CCl)nc13)O2 (configuration not stated)
diameter of the inhibition zone (DIZ) (Proteus mirabilis): 21 mm | diameter of the inhibition zone (DIZ) (Serratia marcescens [18]): 21 mm | diameter of the inhibition zone (DIZ) (Aspergillus ochraceus [19]): 15 mm | diameter of the inhibition zone (DIZ) (Staphylococcus aureus [20]): 18 mm | diameter of the inhibition zone (DIZ) (Bacillus cereus): 19 mm | diameter of the inhibition zone (DIZ) (Penicillium chrysogenum [21]): 13 mm

O=c1[nH]c(-c2ccccc2)nc2c1C(c1ccc(Cl)cc1)C=C(c1cc3ccccc3oc1=O)O2 (configuration not stated)
zone of inhibition at 50000 µg/mL (Escherichia coli [22]): 10 mm

Cc1nc2c3c(ncn2n1)Oc1ccc2cc(Br)ccc2c1C3
diameter of the inhibition zone (DIZ) (Serratia marcescens [23]): 23 mm | diameter of the inhibition zone (DIZ) (Aspergillus ochraceus [24]): 17 mm | diameter of the inhibition zone (DIZ) (Penicillium chrysogenum [25]): 13 mm

COc1cc(/C=C/C(=O)CC(=O)/C=C/c2ccc(O)c(OC)c2)ccc1O [CURCUMIN]
IC50 (Alpha-glucosidase): 44.8 µM

Nc1ncnc2c1C(c1ccc(Cl)cc1)C=C(c1cc3ccccc3oc1=O)O2 (configuration not stated)
zone of inhibition at 50000 µg/mL (Klebsiella pneumoniae [26]): 14 mm | zone of inhibition at 50000 µg/mL (Escherichia coli [22]): 10 mm | zone of inhibition at 50000 µg/mL (Aspergillus fumigatus): 10 mm

From ChEMBL document CHEMBL5241112, “Insights into the recent progress in the medicinal chemistry of pyranopyrimidine analogs” (RSC Med Chem, 2022)
